Results: patent publication US11339171B2, “MDM2 inhibitors” (Gan & Lee Pharmaceuticals, priority 2017, dated 2022)
Where “and” joins values, the source holds several entries; their conditions need not be identical. Equal values may be shown once. Read-outs that look alike come from different tables or passages of the source.

How the values were obtained:
MDM2 = target: T1, MDM2 (Homo sapiens, UniProt Q00987); experiment: Inhibition test of MDM2-P53 (GST-MDM2, Biotin-P53, Anti-GST-Tb, SA-XL665); format: binding
T1 construct: made in house
Procedure, shortened: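 Binding was measured by TR-FRET with GST-MDM2 at 4 nM final in PBS with 0.1% BSA, 5 mM DTT and 1 mM AEBSF. Compounds were tested as twelve-point 5-fold dilutions and incubated with the detection mix for 90 min at 25 °C with shaking before plate-reader reading and curve fitting.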

[1] = Pharmacokinetics in ICR mice after intravenous and intragastric administration; format: in vivo; conditions: for MRT last: read-out: MRT(0-t); for MRT inf: read-out: MRT(0-∞); for Vd: read-out: Vz; for half-life: read-out: t1/2 (converted)
Procedure, shortened: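 Plasma concentrations by LC-MS/MS (range 1 to 2000 ng/ml) following single intravenous (2 mg/kg) or oral gavage (5 mg/kg) dosing of fasted male ICR mice, three per group. Vehicle 5% DMSO + 40% PEG400 + 55% (10% HP-β-CD in saline); standard PK parameters including bioavailability calculated.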

[2] = system: human osteosarcoma cell line SJSA-1; experiment: Inhibition of proliferation of human osteosarcoma cell line SJSA-1 (DAPI staining, In Cell Analyzer); conditions: Homo sapiens, SJSA-1, 72 h, read-out: IC50 (nM), inhibitory activity on proliferation of human osteosarcoma cell line SJSA-1, SJSA-1, incubated 72 h
[3] = IV 2 mg/kg, ICR mice, individual animal, 2 mg/kg
[4] = PO 5 mg/kg, ICR mice, individual animal, 5 mg/kg
[5] = male, ICR, mouse, plasma, iv, 2 mg/kg, IV 2 mg/kg, ICR mice, Mean
[6] = male, ICR, mouse, plasma, iv, 2 mg/kg, IV 2 mg/kg, ICR mice, individual animal
[7] = male, ICR, mouse, plasma, po, 5 mg/kg, PO 5 mg/kg, ICR mice, Mean
[8] = male, ICR, mouse, plasma, po, 5 mg/kg, PO 5 mg/kg, ICR mice, individual animal

T1 sequence (Q00987 whole entry): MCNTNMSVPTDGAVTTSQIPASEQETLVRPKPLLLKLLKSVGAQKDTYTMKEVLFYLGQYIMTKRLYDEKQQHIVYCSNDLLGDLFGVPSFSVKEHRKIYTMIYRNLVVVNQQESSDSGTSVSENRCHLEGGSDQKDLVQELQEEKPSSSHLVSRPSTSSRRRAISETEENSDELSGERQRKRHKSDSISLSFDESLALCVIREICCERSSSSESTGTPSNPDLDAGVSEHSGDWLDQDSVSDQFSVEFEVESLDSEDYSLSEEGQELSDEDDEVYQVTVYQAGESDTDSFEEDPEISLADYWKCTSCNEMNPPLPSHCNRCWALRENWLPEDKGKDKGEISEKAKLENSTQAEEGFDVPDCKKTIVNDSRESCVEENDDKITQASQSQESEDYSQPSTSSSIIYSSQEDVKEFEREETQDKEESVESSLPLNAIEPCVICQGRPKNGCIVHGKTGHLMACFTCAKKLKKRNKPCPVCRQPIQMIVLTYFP

COc1cc(N(C)C)ccc1-c1nc2c(n1C(C)C)[C@@]1(C(=O)Nc3cc(Cl)ccc31)N(c1cc(Cl)ccc1C)C2=O [Example S-23, (S)-6-chloro-5′-(5-chloro-2-methylphenyl)-2′-(4-(dimethylamino)-2-methoxyphenyl)-3′-isopropyl-3′H-spiro[dihydroindole-3,4′-pyrrolo[3,4-d]imidazole]-2,6′(5′H)-dione]
IC50 (MDM2): 2.8 nM
AUC(0-t) [1, 3]: 6.17276 µg·h/mL and 6.6253 µg·h/mL
AUC(0-∞) [1, 3]: 6.42771 µg·h/mL and 7.08465 µg·h/mL
CL [1, 3]: 0.311 L/h/kg and 0.283 L/h/kg
Cmax [1, 3]: 3.04032 µg/mL and 3.64021 µg/mL
MRT(0-t) [1, 3]: 1.50 h and 1.55 h
MRT(0-∞) [1, 3]: 1.75 h and 1.99 h
Vz [1, 3]: 0.60 L/kg and 0.64 L/kg
t1/2 [1, 3]: 1.33 h and 1.57 h
F* ([1]; PO 5 mg/kg vs IV 2 mg/kg, ICR mice): 43.18%
AUC(0-t) [1, 4]: 9.12266 µg·h/mL and 7.67541 µg·h/mL
AUC(0-∞) [1, 4]: 9.16357 µg·h/mL and 7.88103 µg·h/mL
Cmax [1, 4]: 3.31665 µg/mL and 2.73039 µg/mL
MRT(0-t) [1, 4]: 2.02 h and 2.08 h
MRT(0-∞) [1, 4]: 2.05 h and 2.29 h
Tmax [1, 4]: 0.50 h
t1/2 [1, 4]: 0.98 h and 1.52 h
AUC(0-inf) [1, 5]: 8.01 µg·h/mL
clearance [1, 5]: 0.261 L/h/kg
AUC(0-t) ([1]; male, ICR, mouse, plasma, iv, 2 mg/kg, IV 2 mg/kg, ICR mice, Mean, read-out: AUC(0-t)): 7.42 µg·h/mL
Cmax ([1]; male, ICR, mouse, plasma, iv, 2 mg/kg, IV 2 mg/kg, ICR mice, Mean, read-out: Cmax): 3.49 µg/mL
MRT last [1, 5]: 1.61 h
MRT inf [1, 5]: 2.07 h
Tmax ([1]; male, ICR, mouse, plasma, iv, 2 mg/kg, IV 2 mg/kg, ICR mice, Mean, read-out: Tmax): 0.083 h
Vd [1, 5]: 0.58 L/kg
half-life [1, 5]: 1.59 h
AUC(0-inf) [1, 6]: 10.5 µg·h/mL
clearance [1, 6]: 0.19 L/h/kg
AUC(0-t) ([1]; male, ICR, mouse, plasma, iv, 2 mg/kg, IV 2 mg/kg, ICR mice, individual animal, read-out: AUC(0-t)): 9.46 µg·h/mL
Cmax ([1]; male, ICR, mouse, plasma, iv, 2 mg/kg, IV 2 mg/kg, ICR mice, individual animal, read-out: Cmax): 3.78 µg/mL
MRT last [1, 6]: 1.78 h
MRT inf [1, 6]: 2.46 h
Tmax ([1]; male, ICR, mouse, plasma, iv, 2 mg/kg, IV 2 mg/kg, ICR mice, individual animal, read-out: Tmax): 0.08 h
Vd [1, 6]: 0.51 L/kg
half-life [1, 6]: 1.86 h
AUC(0-inf) [1, 7]: 8.12 µg·h/mL
AUC(0-t) ([1]; male, ICR, mouse, plasma, po, 5 mg/kg, PO 5 mg/kg, ICR mice, Mean, read-out: AUC(0-t)): 8.01 µg·h/mL
Cmax ([1]; male, ICR, mouse, plasma, po, 5 mg/kg, PO 5 mg/kg, ICR mice, Mean, read-out: Cmax): 2.7 µg/mL
MRT last [1, 7]: 2.15 h
MRT inf [1, 7]: 2.26 h
Tmax ([1]; male, ICR, mouse, plasma, po, 5 mg/kg, PO 5 mg/kg, ICR mice, Mean, read-out: Tmax): 0.83 h
half-life [1, 7]: 1.22 h
AUC(0-inf) [1, 8]: 7.32 µg·h/mL
AUC(0-t) ([1]; male, ICR, mouse, plasma, po, 5 mg/kg, PO 5 mg/kg, ICR mice, individual animal, read-out: AUC(0-t)): 7.24 µg·h/mL
Cmax ([1]; male, ICR, mouse, plasma, po, 5 mg/kg, PO 5 mg/kg, ICR mice, individual animal, read-out: Cmax): 2.05 µg/mL
MRT last [1, 8]: 2.35 h
MRT inf [1, 8]: 2.43 h
Tmax ([1]; male, ICR, mouse, plasma, po, 5 mg/kg, PO 5 mg/kg, ICR mice, individual animal, read-out: Tmax): 1 h
half-life [1, 8]: 1.15 h
AUC(0-t) ([1]; male, ICR, mouse, plasma, po, 5 mg/kg, oral intragastric administration 5 mg/kg, read-out: AUC0-t): 8.01 µg·h/mL
IC50 [2]: 1.24 nM
